Experimental data as given in patent US20060069064A1, “Methods for facilitating recovery of functions of endogenous or implanted or transplanted stem cells using hyaluronic acid” (priority 2003, published 2006).

Key:
[1] = system: 5-FU-treated mice; settings: mouse, in vivo
Procedure: 5-FU was intraperitoneally injected in mice at 150 mg/kg. The counts of white blood cells (WBC), red blood cells (RBC), platelets (PLT), hemoglobin (HGB) and hematocrit (HCT) were monitored daily for two weeks. As expected, the treatment of mice with 5-FU induced severe bone marrow hypoplasia and pancytopenia. The numbers of WBC and PLT dropped from 8.4±1.5×10^6/ml and 678.4±82×10^6/ml before 5-FU administration to 2.52±0.5×10^6/ml and 388±50×10^6/ml, respectively, 7 days later (FIGS. 1A, B). The total number of mononuclear cells in the bone marrow decreased from 15.3±2.2×10^6/femur before to 5.00±0.65×10^6/femur 7 days after 5-FU administration (FIG. 2A). All parameters were recovered to normal in 14 days after 5-FU administration. To examine the effect of HA on 5-FU-perturbed hematopoiesis, 5-FU-treated (day 0) mice were administered 100 μg/mouse HA as a 0.05% solution in PBS (HA from Sigma-Aldrich, Catalog No.: H1751) on days 4, 6, 10, and 13. A control group of animals was treated with a 200-μl injection of PBS. The peripheral blood from HA- and PBS-treated mice was collected daily and examined for numbers of WBC, RBC, PLT, HGB, and HCT. […] The number of PLT in HA-treated mice was increased starting from day 5 and was elevated by a factor of 1.7 on day 8 (FIG. 1B). […]

[2] = system: 5-FU-treated mice; assay: Bone marrow hematopoiesis in 5-FU-treated mice (cell counts, morphological analysis); format: in vivo; settings: 7 days after 5-FU 150 mg/kg i.p.; 15.3±2.2 before
Procedure: Because mature blood cells are a product of proliferation and differentiation of hematopoietic progenitors, we next examined the effect of HA on bone marrow hematopoiesis in 5-FU-treated mice. 5-FU-treated mice (day 0) were administered PBS or 100 μg/mouse HA (as a 0.05%solution in PBS) on day 4, 6, 10, and 13. Bone marrow cells were harvested on days 7, 14, 21, and 28. On day 7 the total number of bone marrow cells in the HA-treated mice was 3.5-fold higher in comparison to the PBS-treated mice (FIG. 2A). To evaluate the effect of HA on different hematopoietic lineages, a morphological analysis of the bone marrow cells was performed as followed. […]
To examine this assumption, bone marrow cells were cultured in methylcellulose to evaluate the number of proliferating lineage-committed progenitors. […] Colonies containing more then 20 cells were counted under the inverted microscope after 7 days of culture. […] Colonies containing at least 500 cells were counted after 14 days. […] We next investigated whether HA stimulation benefited the pool of committed progenitors at the cost of damaging more primitive progenitors that were measured by using a long-term culture-initiating cells (LTC-IC) assay. The number of LTC-IC in the bone marrow of mice treated with HA was evaluated using a limited dilution assay. […]

time until all parameters recovered to normal after 5-FU administration [1]: 14 days
total number of mononuclear cells in the bone marrow [2]: 5.00±0.65 ×10^6/femur
Compound: O=c1[nH]cc(F)c(=O)[nH]1 [5-FU, 5-fluorouracil]
